Experimental data: article PMC7647111, “Antileishmanial compounds from Connarus suberosus: Metabolomics, isolation and mechanism of action” (PLoS ONE, 2020)
Several values for one entry are separate records, joined by “and”; a condition that tells them apart may be missing. Identical values can stand only once.

Key:
[1] = test system: L. amazonensis promastigotes; assay: Antiproliferation assay: L. amazonensis promastigotes (24 h), resazurin; format: cell-based, Leishmania amazonensis (IFLA/BR/1967/PH8); settings: Leishmania amazonensis, 24 h of exposure, read-out: IC50
Procedure: (§1) Leishmania amazonensis promastigotes (IFLA/BR/1967/PH8) for the 24 h exposure test were cultivated in RPMI 1640, supplemented with 20% v/v heat inactivated fetal bovine serum (FBS) and incubated at 26°C until near the end of the log growth phase. Leishmania amazonensis (IFLA/BR/1967/PH8) and L. infantum (MCAN/BR/2008/1112) promastigotes used in the 72 h exposure test were cultivated in Warren’s medium (containing brain heart infusion- BHI plus hemin and folic acid), supplemented with 10% FBS, 0.1% of the antibiotics: 100 UI/mL penicillin G and 0.1 mg/mL streptomycin. Leishmania amazonensis (IFLA/BR/1967/PH8) transfected with the red fluorescent protein (RFP) gene was cultured in M199 medium (containing 0.1 mmol/L adenine, 40 mmol/L hepes, 0.0005% hemin and 0.0002% biotin), supplemented with 10% FBS, and 0.1% of the antibiotic. Parasites were maintained at 25°C in a BOD incubator.
Extracts and fractions were tested against L. amazonensis (IFLA/BR/1967/PH8) promastigote cells in a 96-well plate at a concentration of 10^6 cells/well. Each sample was solubilized in DMSO (<1%) since it was not soluble directly in the medium. Extracts were tested at 100 μg/mL and 50 μg/mL. […] Plates were read at 570 nm and 595 nm in a microplate reader (BiochromAsys UVM 340) after cell lysis with sodium dodecyl sulfate (SDS). Viability was calculated based on the equations described by Kulshrestha.

[2] = test system: L. amazonensis promastigotes; assay: Antiproliferation assay: L. amazonensis promastigotes (72 h), MTT; format: cell-based, Leishmania amazonensis (IFLA/BR/1967/PH8); settings: Leishmania amazonensis; 72 h exposure
Procedure: as §1
Extracts and isolated compounds were tested against L. amazonensis promastigotes (IFLA/BR/1967/PH8 strain - 2x10^5 cells/well) and L. infantum promastigotes (MCAN/BR/2008/1112 strain - 3x10^5 cells/well). The samples were solubilized in DMSO (<1%), serially diluted (100 μg/mL to 1.56 μg/mL) and tested in a 96-well plate to obtain a dose-response curve. Miltefosine and DMSO were used as positive and negative controls, respectively. After 72 h, 10 μL of 3-(4,5-dimethylthiazol-2-yl)-2,5-diphenyl tetrazolium bromide (5 mg/mL—MTT, Sigma-Aldrich) solution was added to each well and the plate returned to the incubator for an additional 4 h. To halt the reaction, 100 μL acidified isopropanol was added to each well. Plates were read at 570 nm in a microplate reader (Multiskan MS, LabSystems Oy, Helsinki, Finland).

[3] = test system: L. amazonensis amastigotes; assay: L. amazonensis amastigotes assay (RFP parasites in peritoneal macrophages); format: cell-based, Leishmania amazonensis (IFLA/BR/1967/PH8)
Procedure: Peritoneal macrophages obtained from BALB/c mice were transferred to a 24-well plate (6x10^5 cells/well) in RPMI 1640 medium supplemented with 10% inactivated FBS and 20 mM L-glutamine, pH 7.2. The plate was incubated at 37°C in 5% CO2 for 24 h. After this period, macrophages were infected with L. amazonensis (IFLA/BR/1967/PH8) transfected with RFP in the stationary growth phase using a ratio 1:10 (macrophages/parasites) at 33°C for 4 h. The non-phagocytosed parasites were subsequently removed by extensive PBS wash, and samples added at non-toxic concentrations, in accordance with the cytotoxicity tests (100 μg/mL to 1.56 μg/mL) to determine the IC50 for the intracellular parasite. After 72 h, the supernatant was removed from the wells and 200 μL of deionized water added to each well to lyse the cell membrane. After lysis, the resulting supernatants were transferred to a black 96-well plate. The plate was read in a fluorescence spectrophotometer (FLx800, BioTek Instruments, Inc., Winooski, VT, USA) with 540/600 nm of excitation/emission. Wells containing macrophages infected with L. amazonensis (RFP) […] only were used as negative controls.

[4] = Cytotoxicity assay (MTT); format: cell-based, BALB/c mice; settings: female, BALB/c, mouse, murine peritoneal macrophages; 72 h exposure
Procedure: Female BALB/c mice pre-inoculated with 3% thioglycollate medium were used to obtain macrophages from the peritoneal cavity. Peritoneal exudate was collected 72 h post-inoculation using cold Hank´s Balanced Salt Solution and the assay performed as previously reported. Briefly, peritoneal macrophages in RPMI 1640 medium were transferred to a 96-well plate (2x10^5 cells/well) and incubated at 37°C in 5% CO2 for 24 h to allow adhesion. Samples were serially diluted (100 μg/mL to 0.78 μg/mL), added to the plate with the cells and incubated under the same conditions for 72 h. MTT (10 μL/well) was subsequently added and the plates re-incubated for a further 2 h. To halt the reaction, 100 μL of acidified isopropanol was added to each well. The plate was then read at 570 nm in a microplate reader (Multiskan MS, LabSystems Oy, Helsinki, Finland).

[5] = test system: L. amazonensis promastigotes; assay: Reactive oxygen species (ROS) detection (H2DCFDA); format: cell-based, Leishmania amazonensis; settings: 24 h; 2 at 33.8 μM, 3 at 11.4 μM
Procedure: Fluorescence intensity was detected using a fluorimetric microplate reader (FLx800, BioTek Instruments, Inc., Winooski, VT, USA), at 485/528 nm excitation/emission. Promastigotes incubated with miltefosine (44.2 μM) were used as a positive control.

[6] = test system: L. amazonensis promastigotes; assay: Cell membrane integrity (propidium iodide); format: cell-based, Leishmania amazonensis; settings: 24 h; 2 at 33.8 μM, 3 at 11.4 μM
Procedure: Plates were incubated with propidium iodide (PI) (1.0 μg/mL—Sigma-Aldrich, USA, St. Louis, MO, USA) for 15 min in the dark at RT. Fluorescence was measured using a spectrofluorometer (FLx800, BioTek Instruments, Inc., Winooski, VT, USA) with 540/600 nm excitation/emission. Parasites heated at 65 °C were used as the positive control.

[7] = test system: L. amazonensis promastigotes; assay: Neutral lipid quantification (Nile Red); format: cell-based, Leishmania amazonensis; settings: 24 h; 2 at 33.8 μM, 3 at 11.4 μM
Procedure: After 24 h of exposure, the parasites (1x10^7 cells/well) were stained with 10 μg/mL Nile Red (Sigma-Aldrich, St. Louis, MO, USA) in the dark for 20 min at 25°C. Fluorescence intensity was analysed in a spectrofluorometer (BioTek Instruments, Inc., Winooski, VT, USA) using 485/528 nm excitation/emission.

C=C[C@@H](c1cc(CC=C(C)C)ccc1O)c1cc(CC=C(C)C)c(OC)cc1O [Compound 3, connarin]
IC50 [1]: 20.5 µM | IC50 [2]: 4.5 µg/mL and 11.4 µM | SI (Selectivity Index) ([3]; CC50 macrophages / IC50 L. amazonensis amastigotes): 6.3 | IC50 ([3]; Leishmania amazonensis, Peritoneal macrophage, intracellular, 72 h): 1.13 µg/mL and 2.9 µM | CC50 at 72 h [4]: 7.2 µg/mL and 18.3 µM | ROS level [5]: no alteration in the ROS level | plasma membrane integrity (PI-positive parasites) [6]: did not interfere with plasma membrane permeation | increase in neutral lipid levels in relation to the untreated control [7]: 82.0%
